Laboratory results taken from publication PMC10101059, “Rational Design of Stapled Antimicrobial Peptides to Enhance Stability and In Vivo Potency against Polymicrobial Sepsis” (Microbiology Spectrum, 2023).
In brackets after ≈: the same amount, converted by molar mass. Where two headings read alike, the source gives them in different places. Bridge positions count the residues as written; N and C are the ends. Square brackets hold non-standard residues; d marks the D form. Peptide text beside a SMILES is read from it. R5 = C=CCCC[C@@](C)(N)C(=O)O

Tests used:
Acinetobacter baumannii = assay: microbe, parasite or virus in culture; format: cell-based
Procedure: The antimicrobial assay was performed according to a modified National Committee for Clinical Laboratory Standards (NCCLS) protocol ([41], [42]). Briefly, 5 × 10^5 CFU/mL bacterial cells were treated with various peptide concentrations and incubated at 37 ± 2°C for 16 to 20 h. The lowest concentration with clear wells was recorded as the MIC for each test molecule. The clear wells were further plated in Mueller-Hinton agar (MHA) plates, followed by incubation overnight at 37 ± 2°C. After plating, the lowest concentration at which no growth was observed was recorded as the MBC. For the serum sensitivity assay, the antimicrobial activity of the peptides was tested in medium containing 50% human serum ([43], [44]). The antimicrobial assay was performed in the presence of physiological ions and glucose. The test media were supplemented with MgCl2 (1 mM), CaCl2 (2 mM), NaCl (150 mM), KCl (4.5 mM), NH4Cl (6 μM) ([45], [46]), or glucose (0.2%) ([47]), followed by routine antimicrobial assay as described previously. For the pH sensitivity assay, the antimicrobial assay was performed in media adjusted to pH values ranging from 4 to 12. To estimate the effects of temperature on antimicrobial activity, the peptide was incubated for 1 h at temperatures ranging from 40 to 100°C ([48]), followed by the antimicrobial assay as described above.

Staphylococcus aureus = format: cell-based
Procedure: (§1) The antimicrobial assay was performed according to a modified National Committee for Clinical Laboratory Standards (NCCLS) protocol ([41], [42]). Briefly, 5 × 10^5 CFU/mL bacterial cells were treated with various peptide concentrations and incubated at 37 ± 2°C for 16 to 20 h. The lowest concentration with clear wells was recorded as the MIC for each test molecule. The clear wells were further plated in Mueller-Hinton agar (MHA) plates, followed by incubation overnight at 37 ± 2°C. After plating, the lowest concentration at which no growth was observed was recorded as the MBC. For the serum sensitivity assay, the antimicrobial activity of the peptides was tested in medium containing 50% human serum ([43], [44]).

Escherichia coli = assay: microbe, parasite or virus in culture; format: cell-based
Procedure: as §1

Pseudomonas aeruginosa = assay: microbe, parasite or virus in culture; format: cell-based
Procedure: as §1

Enterobacter aerogenes = assay: microbe, parasite or virus in culture; format: cell-based
Procedure: as §1

[1] = test system: NDM-1 Klebsiella pneumoniae; assay: microbe, parasite or virus in culture; format: cell-based; details: NDM-1
Procedure: as §1

MDR A. baumannii 1019 = assay: microbe, parasite or virus in culture; format: cell-based, Acinetobacter baumannii; details: MDR 1019
Procedure: as §1

MDR A. baumannii 2962 = assay: microbe, parasite or virus in culture; format: cell-based, Acinetobacter baumannii; details: MDR 2962
Procedure: as §1

MDR A. baumannii 1607 = assay: microbe, parasite or virus in culture; format: cell-based, Acinetobacter baumannii; details: MDR 1607
Procedure: as §1

MDR A. baumannii 1702 = assay: microbe, parasite or virus in culture; format: cell-based, Acinetobacter baumannii; details: MDR 1702
Procedure: as §1

MDR A. baumannii 14B0091 = assay: microbe, parasite or virus in culture; format: cell-based, Acinetobacter baumannii; details: MDR 14B0091
Procedure: as §1

MDR A. baumannii 2088 = assay: microbe, parasite or virus in culture; format: cell-based, Acinetobacter baumannii; details: MDR 2088
Procedure: as §1

MDR A. baumannii 2997 = assay: microbe, parasite or virus in culture; format: cell-based, Acinetobacter baumannii; details: MDR 2997
Procedure: as §1

MDR A. baumannii 2982 = assay: microbe, parasite or virus in culture; format: cell-based, Acinetobacter baumannii; details: MDR 2982
Procedure: as §1

MDR A. baumannii 1033 = assay: microbe, parasite or virus in culture; format: cell-based, Acinetobacter baumannii; details: MDR 1033
Procedure: as §1

MDR A. baumannii 3618 = assay: microbe, parasite or virus in culture; format: cell-based, Acinetobacter baumannii; details: MDR 3618
Procedure: as §1

MDR A. baumannii 2998 = assay: microbe, parasite or virus in culture; format: cell-based, Acinetobacter baumannii; details: MDR 2998
Procedure: as §1

MDR A. baumannii 921 = assay: microbe, parasite or virus in culture; format: cell-based, Acinetobacter baumannii; details: MDR 921
Procedure: as §1

human red blood cells = format: cell-based
Procedure: The hemolytic assay was performed after approval from the institutional ethics committee (Academia Sinica Institutional Review Board [IRB]; ID no. AS-IRB02-111075). Blood was collected from healthy humans, and 50 μL of a 2% blood cell suspension in normal saline was treated with an equal volume of peptide at different concentrations. The mixture was then incubated at 37 ± 2°C for 1 h. Next, the cell suspension was centrifuged at 1,000 × g for 10 min. Percent hemolysis was estimated by the absorbance of treated and control supernatant samples at 540 nm ([23], [44]).

In the case of `CC[C@H](C)[C@H](NC(=O)[C@H](C)NC(=O)[C@H](CCCCN)NC(=O)CNC(=O)[C@H](C)NC(=O)[C@H](CO)NC(=O)[C@H](Cc1ccccc1)NC(=O)[C@H](CC(C)C)NC(=O)CNC(=O)CNC(=O)[C@@H](NC(=O)[C@@H](NC(=O)[C@H](Cc1c[nH]cn1)NC(=O)[C@H](Cc1c[nH]cn1)NC(=O)[C@@H](NC(=O)[C@@H](N)Cc1ccccc1)[C@@H](C)CC)[C@@H](C)CC)[C@@H](C)CC)C(=O)N[C@@H](Cc1c[nH]cn1)C(=O)N[C@@H](CCCNC(=N)N)C(=O)N[C@@H](CC(C)C)C(=O)N[C@H](C(=O)N[C@@H](CCCNC(=N)N)C(=O)N[C@@H](CCCNC(=N)N)C(=O)N[C@@H](CCCNC(=N)N)C(=O)N[C@@H](CCCNC(=N)N)C(=O)N[C@@H](CCCNC(=N)N)C(=O)O)[C@@H](C)CC` [TP4, tilapia piscidin 4] (H-FIHHIIGGLFSAGKAIHRLIRRRRR-OH), the MBC (Acinetobacter baumannii; pH 6) is reported as 3.13−6.25 μM, the MIC (Acinetobacter baumannii; pH 6) is reported as 3.13−6.25 μM and the MBC (Acinetobacter baumannii; pH 7.4, read-out: MBC) is reported as 3.13 µM (≈ 9.33 µg/mL). For the same molecule, the MIC (Acinetobacter baumannii; pH 7.4, read-out: MIC) was 3.13 µM (≈ 9.33 µg/mL), the MBC (Acinetobacter baumannii; pH 8) was 1.56−3.13 μM and the MIC (Acinetobacter baumannii; pH 8) was 1.56−3.13 μM. The MBC (Acinetobacter baumannii; pH 10, read-out: MBC) was 0.78 µM (≈ 2.33 µg/mL), the MIC (Acinetobacter baumannii; pH 10, read-out: MIC) was 0.78 µM (≈ 2.33 µg/mL) and the MBC (Staphylococcus aureus) was 1.56 µM (≈ 4.65 µg/mL). For the same molecule, the MIC (Staphylococcus aureus) was 1.56 µM (≈ 4.65 µg/mL), the MBC (Escherichia coli) was 3.13 µM (≈ 9.33 µg/mL) and the MIC (Escherichia coli) was 3.13 µM (≈ 9.33 µg/mL). For the same molecule, the MBC (Pseudomonas aeruginosa; read-out: MBC) was 12.5 µM (≈ 37.3 µg/mL), the MIC (Pseudomonas aeruginosa; read-out: MIC) was 12.5 µM (≈ 37.3 µg/mL) and the MBC (Enterobacter aerogenes) was 0.78 µM (≈ 2.33 µg/mL). For the same molecule, the MIC (Enterobacter aerogenes) was 0.78 µM (≈ 2.33 µg/mL), the MBC [1] was 6.25 µM (≈ 18.6 µg/mL) and the MIC [1] was 6.25 µM (≈ 18.6 µg/mL). For the same molecule, the MBC (MDR A. baumannii 1019) was under 1.56 µM, the MIC (MDR A. baumannii 1019) was under 1.56 µM and the MBC (MDR A. baumannii 2962) was under 1.56 µM. It also gave an MIC (MDR A. baumannii 2962) of under 1.56 µM, an MIC (MDR A. baumannii 1607) of under 1.56 µM and an MBC (MDR A. baumannii 1607; read-out: MBC) of under 1.56 µM. The MBC (MDR A. baumannii 1702; read-out: MBC) was under 1.56 µM, the MIC (MDR A. baumannii 1702; read-out: MIC) was under 1.56 µM and the MBC (MDR A. baumannii 14B0091) was under 1.56 µM. The MIC (MDR A. baumannii 14B0091) was under 1.56 µM, the MBC (MDR A. baumannii 2088; read-out: MBC) was under 1.56 µM and the MIC (MDR A. baumannii 2088; read-out: MIC) was under 1.56 µM. For the same molecule, the MBC (MDR A. baumannii 2997; read-out: MBC) was under 1.56 µM, the MIC (MDR A. baumannii 2997; read-out: MIC) was under 1.56 µM and the MBC (MDR A. baumannii 2982) was 3.13 µM (≈ 9.33 µg/mL). It also gave an MIC (MDR A. baumannii 2982) of 3.13 µM (≈ 9.33 µg/mL), an MBC (MDR A. baumannii 1033; read-out: MBC) of 6.25 µM (≈ 18.6 µg/mL) and an MIC (MDR A. baumannii 1033; read-out: MIC) of under 1.56 µM. For the same molecule, the MBC (MDR A. baumannii 3618) was 6.25 µM (≈ 18.6 µg/mL), the MIC (MDR A. baumannii 3618) was 3.13 µM (≈ 9.33 µg/mL) and the MIC (MDR A. baumannii 2998) was under 1.56 µM. The MBC (MDR A. baumannii 2998; read-out: MBC) was under 1.56 µM, the MBC (MDR A. baumannii 921) was under 1.56 µM and the MIC (MDR A. baumannii 921) was under 1.56 µM.
`CC[C@H](C)[C@H](NC(=O)[C@@H](NC(=O)[C@@H](NC(=O)[C@@H](N)Cc1ccccc1)[C@@H](C)CC)[C@@H](C)CC)C(=O)N[C@@H](CCCCN)C(=O)N[C@@H](CCCCN)C(=O)N[C@@H](CO)C(=O)NCC(=O)NCC(=O)N[C@@H](CC(C)C)C(=O)N[C@@H](Cc1ccccc1)C(=O)N[C@@H](CCCCN)C(=O)N[C@@H](CCCCN)C(=O)N[C@@H](CCCCN)C(=O)N[C@@H](C)C(=O)NCC(=O)N[C@@H](C)C(=O)N[C@]1(C)CCCC=CCCC[C@](C)(C(=O)N[C@H](C(=O)N[C@@H](CCCCN)C(=O)N[C@@H](CCCCN)C(=O)O)[C@@H](C)CC)NC(=O)[C@H](CCCCN)NC(=O)[C@H](CCCCN)NC(=O)[C@H](CCCCN)NC1=O` [TP4-1] (H-FIIIKKSGGLFKKKAGA[R5]KKK[R5]IKK-OH; staple 18-22; N-terminus and C-terminus assumed) gave an MBC (Acinetobacter baumannii; read-out: MBC) of over 25 µM, an MIC (Acinetobacter baumannii; read-out: MIC) of over 25 µM and an MBC (Staphylococcus aureus) of over 25 µM. For the same molecule, the MIC (Staphylococcus aureus) was over 25 µM and the 15% hemolysis concn (human red blood cells) was over 100 µM.
